Data taken from patent US11453652B2, “Di-macrocycles” (LUMIPHORE, INC., priority 2013, dated 2022).
{AmC3} = aminopropyl group

Assay: Gel electrophoresis mobility shift assay of metal cation complexation
Assay type: binding
Details: 20% polyacrylamide gel, 8M urea; incubated 55° C. 15 minutes, HEPES pH 7.5; compared with no metal cation
Experimental: For use in certain applications, such as acting as a bifunctional chelating agent to attach a radioisotope to a site-directing molecule, it is necessary that the chelator be able to coordinate to the metal ion of interest in a kinetically facile and thermodynamically stable manner. […] In this experiment, a conjugate of 12 with a small (18 base length) DNA oligomer, 15 was treated with a solution containing a metal cation. The electrophoretic mobility of the conjugate on a polyacrylamide gel was then compared with that of the conjugate which was not exposed to the solution of metal cation. […] The gel electrophoretic mobility of the DNA oligomer 14 that was not conjugated to 12, present in the solution of 15, was also compared with and without exposure to the metal cation solution.
C=control, no metal cations. Y, Eu, Tb, Zr, Th=yttrium(III), europium(III), terbium(III), zirconium(IV), and thorium(IV), respectively. Arrow indicates luminescent band observed under hand held ultraviolet lamp.
In particular, a solution of DNA oligomer (3 μL, 33 μM, all concentrations final) was mixed with a solution of metal cation (2 μL, 625 μM) or an equal volume of water, additional water (2.5 μL) and a buffer solution (2.5 μL, 50 mM HEPES, pH 7.5). […]

Substance | electrophoretic mobility following treatment with the metal cation solution
Conjugate 15: conjugate of di-macrocycle 12 with 18-base DNA oligonucleotide 14 (DNA AAGGTCATCCATGACAAC; DNA, backbone and methylation of C not given here; di-macrocycle 12 conjugated) | migrates more slowly
unmodified oligonucleotide: DNA 18-base oligonucleotide 5′-AAGGTCATCCATGACAAC-3′ with 5′-aminopropyl group, not conjugated to 12 (DNA, 5' {AmC3}, backbone and methylation of C not given here) | unaffected
